For the test, the system named is adhesion of bacteria. Put plainly: Anti-adhesion assay (not further specified). It counts as cell-based. From the text:
Further, quercetin and myricetin, which both share the catechin or epicatechin-like nucleus with leucocyanins but have R^2=H or OH, have been tested in the anti-adhesion assay and show no activity. […] Further, as described previously herein, one of the anti-adhesion assays described herein compares the ability of a substance to inhibit binding relative to mannose inhibition of such adhesion, and it is therefore believed that a carbohydrate moiety is involved in conferring anti-adhesion activity.

“Also recorded” adds a separate entry of the source.

Consider `O=c1c(O)c(-c2cc(O)c(O)c(O)c2)oc2cc(O)cc(O)c12` [myricetin], for which the anti-adhesion activity result is reported as “no activity”. The result for `O=c1c(O)c(-c2ccc(O)c(O)c2)oc2cc(O)cc(O)c12` [quercetin] reads “no activity”; that for myricetin-3-pyranoside, “some anti-adhesion activity; also recorded: does have anti-adhesion activity”.

For the origin of these results see patent US6440471B2, “Plant proanthocyanidin extracts” (JLB, Inc., priority 1999, dated 2002).
